Laboratory results reported in ChEMBL document CHEMBL2380214, “Novel hybrids of (phenylsulfonyl)furoxan and anilinopyrimidine as potent and selective epidermal growth factor receptor inhibitors for intervention of non-small-cell lung cancer” (J Med Chem, 2013).
The source made the active and inactive calls. The rule behind the calls is not given here.

Tests used:
[1] = Selectivity ratio of IC50 for human 16HBE14o- cells harboring wild type EGFR to IC50 for gefitinib-resistant human NCI-H1975 cells harboring EGFR L858R/[…] double mutant; format: ADME, cell-based; details: read-out: Ratio IC50
[2] = Selectivity ratio of IC50 for human 16HBE14o- cells harboring wild type EGFR to IC50 for gefitinib-sensitive human HCC827 cells harboring EGFR […] deletion mutant; format: ADME, cell-based; details: read-out: Ratio IC50
[3] = Selectivity ratio of IC50 for human BEAS2B cells harboring wild type EGFR to IC50 for gefitinib-resistant human NCI-H1975 cells harboring EGFR L858R/[…] double mutant; format: ADME, cell-based; details: read-out: Ratio IC50
[4] = Selectivity ratio of IC50 for human BEAS2B cells harboring wild type EGFR to IC50 for gefitinib-sensitive human HCC827 cells harboring EGFR […] deletion mutant; format: ADME, cell-based; details: read-out: Ratio IC50
[5] = Selectivity ratio of IC50 for human A431 cells overexpressing wild type EGFR to IC50 for gefitinib-resistant human NCI-H1975 cells harboring EGFR L858R/[…] double mutant; format: ADME, cell-based
[6] = Selectivity ratio of IC50 for human A431 cells overexpressing wild type EGFR to IC50 for gefitinib-sensitive human HCC827 cells harboring EGFR […] deletion mutant; format: ADME, cell-based
[7] = Selectivity ratio of IC50 for human A549 cells harboring wild type EGFR and k-RAS mutation to IC50 for gefitinib-resistant human NCI-H1975 cells harboring EGFR L858R/[…] double mutant; format: ADME, cell-based
[8] = Selectivity ratio of IC50 for human A549 cells harboring wild type EGFR and k-RAS mutation to IC50 for gefitinib-sensitive human HCC827 cells harboring EGFR […] deletion mutant; format: ADME, cell-based
[9] = cells; format: ADME, cell-based; details: Homo sapiens, 16HBE14o-, 72 h
Description: Cytotoxicity against human 16HBE14o- cells harboring wild type EGFR assessed as growth inhibition after 72 hrs by MTT assay

[10] = cells; format: ADME, cell-based; details: Homo sapiens, BEAS-2B, 72 h
Description: Cytotoxicity against human BEAS2B cells harboring wild type EGFR assessed as growth inhibition after 72 hrs by MTT assay

[11] = tested on: A-431; test: cells; format: ADME, cell-based; details: Homo sapiens, A-431, 72 h
Description: Cytotoxicity against human A431 cells overexpressing wild type EGFR assessed as growth inhibition after 72 hrs by MTT assay

[12] = tested on: A549; test: cells; format: ADME, cell-based; details: Homo sapiens, A549, 72 h
Description: Cytotoxicity against human A549 cells harboring wild type EGFR and k-RAS mutation assessed as growth inhibition after 72 hrs by MTT assay

[13] = tested on: NCI-H1975; test: Cytotoxicity against gefitinib-resistant human NCI-H1975 cells harboring EGFR L858R/[…] double mutant assessed as growth inhibition after 72 hrs by MTT assay; format: functional, cell-based; details: NCI-H1975, 72 h
[14] = molecular target: Epidermal growth factor receptor (Homo sapiens, UniProt P00533)
Chain of Epidermal growth factor receptor (Homo sapiens, UniProt P00533) (P00533 whole entry): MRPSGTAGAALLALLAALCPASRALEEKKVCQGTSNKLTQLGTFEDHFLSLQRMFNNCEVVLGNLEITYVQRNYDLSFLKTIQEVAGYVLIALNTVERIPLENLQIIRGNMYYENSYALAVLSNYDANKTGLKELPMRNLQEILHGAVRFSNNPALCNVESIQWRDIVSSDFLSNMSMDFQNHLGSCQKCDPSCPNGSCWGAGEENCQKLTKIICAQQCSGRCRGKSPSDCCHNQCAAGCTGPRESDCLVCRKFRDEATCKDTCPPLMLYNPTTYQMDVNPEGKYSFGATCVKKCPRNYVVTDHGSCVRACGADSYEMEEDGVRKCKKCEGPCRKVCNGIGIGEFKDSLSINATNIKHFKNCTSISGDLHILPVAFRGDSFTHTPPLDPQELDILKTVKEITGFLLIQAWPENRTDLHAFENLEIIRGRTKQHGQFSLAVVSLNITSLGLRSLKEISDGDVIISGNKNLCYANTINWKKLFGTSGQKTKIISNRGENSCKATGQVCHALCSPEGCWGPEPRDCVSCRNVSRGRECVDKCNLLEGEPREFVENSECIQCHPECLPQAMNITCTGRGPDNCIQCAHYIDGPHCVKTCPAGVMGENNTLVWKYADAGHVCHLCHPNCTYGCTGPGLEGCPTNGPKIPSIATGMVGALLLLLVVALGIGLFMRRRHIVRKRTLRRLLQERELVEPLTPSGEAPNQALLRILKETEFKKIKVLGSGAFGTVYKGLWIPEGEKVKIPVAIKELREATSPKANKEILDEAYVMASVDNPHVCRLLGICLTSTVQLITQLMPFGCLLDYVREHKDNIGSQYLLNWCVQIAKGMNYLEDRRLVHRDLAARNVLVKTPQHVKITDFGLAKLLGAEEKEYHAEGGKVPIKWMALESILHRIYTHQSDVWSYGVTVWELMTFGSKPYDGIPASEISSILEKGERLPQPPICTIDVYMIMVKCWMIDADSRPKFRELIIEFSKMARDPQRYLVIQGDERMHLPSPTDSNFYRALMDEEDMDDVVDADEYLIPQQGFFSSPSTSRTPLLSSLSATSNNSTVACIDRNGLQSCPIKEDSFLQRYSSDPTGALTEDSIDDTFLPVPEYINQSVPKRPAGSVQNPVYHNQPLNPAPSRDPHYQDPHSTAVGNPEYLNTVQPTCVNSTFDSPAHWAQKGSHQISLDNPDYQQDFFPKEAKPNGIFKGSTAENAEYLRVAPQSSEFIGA
Description: Inhibition of wild type EGFR (unknown origin) after 1.5 hrs by FRET-based Z'Lyte assay

[15] = cells; format: functional, cell-based; details: Homo sapiens, HCC827, 72 h
[16] = molecular target: Epidermal growth factor receptor (Homo sapiens, UniProt P00533, L858R/T790M); format: protein assay
Chain of Epidermal growth factor receptor (Homo sapiens, UniProt P00533, L858R/T790M) (P00533 25-1210 T790M/L858R limits assumed): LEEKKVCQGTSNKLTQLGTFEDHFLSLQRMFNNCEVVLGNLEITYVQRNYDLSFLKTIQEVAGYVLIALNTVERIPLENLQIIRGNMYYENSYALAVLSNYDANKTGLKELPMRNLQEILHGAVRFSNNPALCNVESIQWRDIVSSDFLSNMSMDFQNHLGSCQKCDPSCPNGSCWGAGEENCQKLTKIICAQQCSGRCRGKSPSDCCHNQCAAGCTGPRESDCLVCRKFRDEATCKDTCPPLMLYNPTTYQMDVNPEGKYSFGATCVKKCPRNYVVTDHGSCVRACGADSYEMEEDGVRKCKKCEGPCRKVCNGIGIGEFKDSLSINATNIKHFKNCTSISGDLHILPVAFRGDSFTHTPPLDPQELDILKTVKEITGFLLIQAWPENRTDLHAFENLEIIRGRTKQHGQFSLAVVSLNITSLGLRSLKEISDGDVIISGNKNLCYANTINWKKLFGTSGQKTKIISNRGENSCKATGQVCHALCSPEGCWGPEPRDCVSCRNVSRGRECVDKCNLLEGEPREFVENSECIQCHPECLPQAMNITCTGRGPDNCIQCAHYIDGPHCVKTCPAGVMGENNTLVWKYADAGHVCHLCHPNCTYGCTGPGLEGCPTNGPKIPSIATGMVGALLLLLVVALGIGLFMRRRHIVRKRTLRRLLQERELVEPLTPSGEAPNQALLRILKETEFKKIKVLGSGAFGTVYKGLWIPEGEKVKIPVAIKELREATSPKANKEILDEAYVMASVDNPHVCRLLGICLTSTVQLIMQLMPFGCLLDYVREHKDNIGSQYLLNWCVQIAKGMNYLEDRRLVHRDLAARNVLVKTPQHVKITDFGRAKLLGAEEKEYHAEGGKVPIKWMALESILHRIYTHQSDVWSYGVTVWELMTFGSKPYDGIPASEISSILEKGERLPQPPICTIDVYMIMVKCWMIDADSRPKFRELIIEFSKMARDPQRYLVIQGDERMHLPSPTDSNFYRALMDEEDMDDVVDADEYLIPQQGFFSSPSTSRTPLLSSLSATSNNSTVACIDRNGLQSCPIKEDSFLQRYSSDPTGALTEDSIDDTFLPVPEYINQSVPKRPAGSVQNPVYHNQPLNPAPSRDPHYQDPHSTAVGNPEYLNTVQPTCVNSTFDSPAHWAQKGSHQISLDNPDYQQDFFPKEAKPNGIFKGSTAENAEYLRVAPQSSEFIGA
Description: Inhibition of EGFR L858R/T790M double mutant (unknown origin) after 1.5 hrs by FRET-based Z'Lyte assay

[17] = molecular target: Epidermal growth factor receptor (Homo sapiens, UniProt P00533, L858R); format: protein assay
Chain of Epidermal growth factor receptor (Homo sapiens, UniProt P00533, L858R) (P00533 25-1210 L858R limits assumed): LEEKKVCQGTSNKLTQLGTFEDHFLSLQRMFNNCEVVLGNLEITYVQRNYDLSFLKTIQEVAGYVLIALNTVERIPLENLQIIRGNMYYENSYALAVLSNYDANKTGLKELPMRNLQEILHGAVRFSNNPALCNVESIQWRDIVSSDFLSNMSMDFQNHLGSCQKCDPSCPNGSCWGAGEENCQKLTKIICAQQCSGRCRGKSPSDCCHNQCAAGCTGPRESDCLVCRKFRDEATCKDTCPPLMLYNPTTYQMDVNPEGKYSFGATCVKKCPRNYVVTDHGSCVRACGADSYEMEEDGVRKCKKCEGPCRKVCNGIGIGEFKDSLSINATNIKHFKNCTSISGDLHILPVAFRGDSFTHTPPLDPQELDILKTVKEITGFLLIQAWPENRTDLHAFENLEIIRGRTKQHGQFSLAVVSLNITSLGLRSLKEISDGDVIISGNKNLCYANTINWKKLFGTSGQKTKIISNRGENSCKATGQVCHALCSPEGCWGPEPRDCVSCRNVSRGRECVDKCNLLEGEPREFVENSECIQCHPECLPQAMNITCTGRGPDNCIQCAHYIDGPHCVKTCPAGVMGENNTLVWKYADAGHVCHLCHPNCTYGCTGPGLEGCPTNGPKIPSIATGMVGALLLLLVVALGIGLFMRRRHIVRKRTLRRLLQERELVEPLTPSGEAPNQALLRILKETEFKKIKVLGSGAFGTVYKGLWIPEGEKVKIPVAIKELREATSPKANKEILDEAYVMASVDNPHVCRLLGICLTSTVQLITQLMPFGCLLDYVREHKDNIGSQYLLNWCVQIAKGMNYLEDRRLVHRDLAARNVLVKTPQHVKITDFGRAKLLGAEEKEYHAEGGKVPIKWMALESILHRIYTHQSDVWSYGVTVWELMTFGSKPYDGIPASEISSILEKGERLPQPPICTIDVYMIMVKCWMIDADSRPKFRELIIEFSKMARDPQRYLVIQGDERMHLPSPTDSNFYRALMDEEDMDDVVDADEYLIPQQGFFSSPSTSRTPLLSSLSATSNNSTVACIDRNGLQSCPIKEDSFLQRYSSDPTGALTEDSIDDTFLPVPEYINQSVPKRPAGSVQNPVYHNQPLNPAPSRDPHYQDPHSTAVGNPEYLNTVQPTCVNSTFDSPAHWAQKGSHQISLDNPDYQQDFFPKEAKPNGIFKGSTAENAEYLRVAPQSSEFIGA
Description: Inhibition of EGFR L858R mutant (unknown origin) after 1.5 hrs by FRET-based Z'Lyte assay

[18] = tested on: NCI-H1975; test: (§1) Antitumor activity against gefitinib-resistant human NCI-H1975 cells harboring EGFR L858R/[…] double mutant xenografted in athymic BALB/c nude mouse assessed as tumor growth inhibition at 8 mg/kg, ip qd administered for 14 days measured every other day during compound administration relative to vehicle-treated control; format: functional; details: 336 h, route intraperitoneal, read-out: TGI
[19] = tested on: NCI-H1975; test: Inhibition of NFkappaB phosphorylation in gefitinib-resistant human NCI-H1975 cells harboring EGFR L858R/[…] double mutant at 0.01 to 1 uM after 24 hrs by Western blot analysis; format: cell-based
[20] = Induction of apoptosis in EGFR-independent human H460 cells at 1 to 5 uM after 24 hrs by annexin-V/7-AAD staining-based FACS flow cytometric analysis; format: cell-based; details: nci-h460, 24 h
[21] = tested on: HCC827; test: Induction of apoptosis in gefitinib-sensitive human HCC827 cells harboring EGFR […] deletion mutant after 24 hrs by annexin-V/7-AAD staining-based FACS flow cytometric analysis; format: functional, cell-based
[22] = tested on: NCI-H1975; test: Induction of apoptosis in gefitinib-resistant human NCI-H1975 cells harboring EGFR L858R/[…] double mutant after 24 hrs by annexin-V/7-AAD staining-based FACS flow cytometric analysis; format: functional, cell-based
[23] = Induction of NO production in human 16HBE14o- cells harboring wild type EGFR assessed as increase in nitrite level at 100 uM after 150 mins by Griess assay; format: cell-based; details: 2.5 h
[24] = tested on: NCI-H1975; test: Induction of NO production in human NCI-H1975 cells harboring EGFR L858R/[…] double mutant assessed as increase in nitrite level at 100 uM after 150 mins by Griess assay; format: functional, cell-based
[25] = tested on: Epidermal growth factor receptor (Homo sapiens), P00533 [L858R,T790M]; details: NCI-H1975, 0.01 to 1 uM
Chain of Epidermal growth factor receptor (Homo sapiens), P00533 [L858R,T790M] (P00533 whole entry T790M/L858R, looked up): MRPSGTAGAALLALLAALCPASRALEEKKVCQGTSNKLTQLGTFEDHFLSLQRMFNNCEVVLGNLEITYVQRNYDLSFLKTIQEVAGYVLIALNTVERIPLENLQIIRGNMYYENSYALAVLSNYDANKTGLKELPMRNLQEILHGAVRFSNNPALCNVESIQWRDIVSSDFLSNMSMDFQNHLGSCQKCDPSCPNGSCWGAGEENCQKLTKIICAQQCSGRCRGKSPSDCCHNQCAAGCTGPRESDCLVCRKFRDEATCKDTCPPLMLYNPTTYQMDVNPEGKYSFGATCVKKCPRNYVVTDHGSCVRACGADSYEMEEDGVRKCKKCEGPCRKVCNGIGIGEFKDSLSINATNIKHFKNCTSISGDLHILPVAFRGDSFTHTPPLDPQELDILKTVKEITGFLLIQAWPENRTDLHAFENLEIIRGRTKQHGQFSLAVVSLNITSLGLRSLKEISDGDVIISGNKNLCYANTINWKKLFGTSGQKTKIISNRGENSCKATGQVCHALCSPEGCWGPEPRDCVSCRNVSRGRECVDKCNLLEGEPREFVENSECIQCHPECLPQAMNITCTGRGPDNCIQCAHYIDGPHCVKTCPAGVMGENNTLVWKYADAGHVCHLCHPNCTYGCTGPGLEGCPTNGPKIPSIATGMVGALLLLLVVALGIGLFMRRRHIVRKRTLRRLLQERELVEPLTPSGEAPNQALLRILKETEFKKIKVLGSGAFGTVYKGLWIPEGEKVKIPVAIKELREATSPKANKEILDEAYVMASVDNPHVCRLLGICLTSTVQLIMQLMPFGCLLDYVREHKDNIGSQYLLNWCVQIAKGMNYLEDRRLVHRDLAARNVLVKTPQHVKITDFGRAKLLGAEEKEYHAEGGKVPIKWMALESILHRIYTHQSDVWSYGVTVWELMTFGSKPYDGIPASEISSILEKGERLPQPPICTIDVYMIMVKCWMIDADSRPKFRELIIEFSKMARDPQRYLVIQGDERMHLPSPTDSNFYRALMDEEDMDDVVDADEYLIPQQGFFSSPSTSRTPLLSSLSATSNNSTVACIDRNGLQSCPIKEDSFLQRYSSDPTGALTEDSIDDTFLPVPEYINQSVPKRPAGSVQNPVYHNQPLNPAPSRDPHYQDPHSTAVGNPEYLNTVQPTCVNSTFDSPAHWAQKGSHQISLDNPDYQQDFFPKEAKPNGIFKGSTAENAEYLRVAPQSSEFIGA

[26] = tested on: Epidermal growth factor receptor (Homo sapiens), P00533 [L858R,T790M]; details: NCI-H1975, 0.01 to 1 uM; remark: listed apart in the source
[27] = tested on: Epidermal growth factor receptor (Homo sapiens), P00533 [L858R,T790M]; details: NCI-H1975, 0.01 to 1 uM; remark: listed apart in the source
[28] = tested on: Mus musculus; test: Toxicity in athymic BALB/c nude mouse xenografted with gefitinib-resistant human NCI-H1975 cells harboring EGFR L858R/[…] double mutant assessed as body mass loss at 14 mg/kg, ip qd administered for 14 days measured every other day during compound administration relative to vehicle-treated control; format: organism-based; design: dose 14 mg/kg, route intraperitoneal; details: in vivo, 336 h
[29] = tested on: NCI-H1975; test: as §1, with “at 14” for “at 8”; format: functional; details: 336 h, route intraperitoneal, read-out: TGI
[30] = tested on: Epidermal growth factor receptor (Homo sapiens), P00533 [L858R,T790M]; test: Inhibition of EGFR L858R/[…] double mutant phosphorylation in gefitinib-resistant human NCI-H1975 cells assessed as inhibition of ERK phosphorylation after 24 hrs by Western blot analysis; format: cell-based
[31] = tested on: Epidermal growth factor receptor (Homo sapiens), P00533 [L858R,T790M]; test: Inhibition of EGFR L858R/[…] double mutant phosphorylation in gefitinib-resistant human NCI-H1975 cells assessed as inhibition of AKT phosphorylation after 24 hrs by Western blot analysis; format: cell-based
[32] = tested on: Epidermal growth factor receptor (Homo sapiens), P00533 [L858R,T790M]; test: Inhibition of EGFR L858R/[…] double mutant phosphorylation in gefitinib-resistant human NCI-H1975 cells after 24 hrs by Western blot analysis; format: cell-based
[33] = tested on: NCI-H1975; test: Cytotoxicity against gefitinib-resistant human NCI-H1975 cells harboring EGFR L858R/[…] double mutant assessed as growth inhibition at 1 uM after 24 hrs by MTT assay in presence of hemoglobin; format: functional, cell-based
[34] = tested on: HCC827; test: Cytotoxicity against gefitinib-sensitive human HCC827 cells harboring EGFR […] deletion mutant assessed as growth inhibition at 1 uM after 24 hrs by MTT assay in presence of hemoglobin; format: functional, cell-based
[35] = tested on: A549; test: Ratio of compound IC50 to WZ4002 IC50 for human A549 cells harboring wild type EGFR and k-RAS mutation; format: ADME, cell-based
[36] = tested on: A-431; test: Ratio of compound IC50 to WZ4002 IC50 for human A431 cells overexpressing wild type EGFR; format: ADME, cell-based
[37] = Ratio of compound IC50 to WZ4002 IC50 for human BEAS2B cells harboring wild type EGFR; format: ADME, cell-based; details: read-out: Ratio IC50

C=CC(=O)Nc1cccc(Oc2nc(Nc3ccc(N4CCN(CC(=O)OCCCCOc5no[n+]([O-])c5S(=O)(=O)c5ccccc5)CC4)cc3OC)ncc2Cl)c1
selectivity ratio [1]: 40
selectivity ratio [2]: 40
selectivity ratio [3]: 40
selectivity ratio [4]: 40
Ratio IC50 [5]: 60
Ratio IC50 [6]: 60
Ratio IC50 [7]: 60
Ratio IC50 [8]: 60
IC50 [9]: 4150 nM
IC50 [10]: 2560 nM
IC50 [11]: 4070 nM
IC50 [12]: 17200 nM
IC50 [13]: 69 nM
IC50 [14]: 174 nM
IC50 [15]: 6 nM
IC50 [16]: 38 nM
IC50 [17]: 189 nM

C=CC(=O)Nc1cccc(Oc2nc(Nc3ccc(N4CCN(C)CC4)cc3OC)ncc2Cl)c1
inhibition in vivo at 8 mg/kg [18]: 69%
inhibition [19]: inactive
Activity [20]: Non-toxic
Activity [21]: Dose-dependent effect
Activity [22]: Dose-dependent effect
Activity [23]: Non-toxic
Activity [24]: inactive
IC50 [10]: 1810 nM
IC50 [12]: 2100 nM
IC50 [13]: 46 nM
IC50 [15]: 8 nM
inhibition [25]: Active
inhibition [26]: Active
inhibition [27]: Active

C=CC(=O)Nc1cccc(Oc2nc(Nc3ccc(N4CCN(CC(=O)OCCCCCCOc5no[n+]([O-])c5S(=O)(=O)c5ccccc5)CC4)cc3OC)ncc2Cl)c1
Activity [28]: Non-toxic
inhibition in vivo at 14 mg/kg [29]: 60%
inhibition [19]: Active
inhibition [30]: Dose-dependent effect
inhibition [31]: Dose-dependent effect
inhibition [32]: Dose-dependent effect
Activity [20]: Non-toxic
Activity [21]: Dose-dependent effect
Activity [22]: Dose-dependent effect
growth inhibition (GI) [33]: inactive
growth inhibition (GI) [34]: inactive
Activity [23]: Non-toxic
Activity [24]: Active
selectivity ratio [1]: 40
selectivity ratio [2]: 40
selectivity ratio [3]: 40
selectivity ratio [4]: 40
Ratio IC50 [5]: 60
Ratio IC50 [6]: 60
Ratio IC50 [7]: 60
Ratio IC50 [8]: 60
IC50 [9]: 23900 nM
IC50 [10]: 44600 nM
IC50 [11]: 5670 nM
IC50 [12]: > 50000 nM
IC50 [13]: 29 nM
IC50 [14]: 292 nM
IC50 [15]: 7 nM
IC50 [16]: 47 nM
IC50 [17]: 305 nM
Ratio IC50 [35]: 5
Ratio IC50 [36]: 5
selectivity ratio [37]: 5
